Like-named read-outs stand apart in the source and are kept apart here.
Legend:
[1] = tested on: BHK-21 cells; assay: Effects of WHS on BHK-21 cells in the presence of steroids; type: cell-based, hamster; details: steroid 50 μg/ml alone
[2] = tested on: BHK-21 cells; assay: Inhibitory effects of steroids on BHK-21 cells; type: cell-based, hamster; details: for activity at 0.5 µg/mL / activity at 1 µg/mL / activity at 5 µg/mL / activity at 25 µg/mL / activity at 50 µg/mL: Mesocricetus auratus, read-out: % of control cell numbers
[3] = tested on: human cutaneous fibroblasts; details: cited from earlier work; for growth inhibition of incubated human cutaneous fibroblasts: listed in descending order of inhibition
[4] = tested on: mouse fibroblasts; details: with protoplasmic vacuolation; cited from earlier work
[5] = BHK-21, 48 h, 0.5 μg/ml, 2 days
[6] = BHK-21, 48 h, 1.0 μg/ml, 2 days
[7] = BHK-21, 48 h, 5.0 μg/ml, 2 days
[8] = BHK-21, 48 h, 25.0 μg/ml, 2 days
[9] = BHK-21, 48 h, 50.0 μg/ml, 2 days
[10] = BHK-21, 96 h, 0.5 μg/ml, 4 days
[11] = BHK-21, 96 h, 1.0 μg/ml, 4 days
[12] = BHK-21, 96 h, 5.0 μg/ml, 4 days
[13] = BHK-21, 96 h, 25.0 μg/ml, 4 days
[14] = BHK-21, 96 h, 50.0 μg/ml, 4 days
[15] = BHK-21, 144 h, 0.5 μg/ml, 6 days
[16] = BHK-21, 144 h, 1.0 μg/ml, 6 days
[17] = BHK-21, 144 h, 5.0 μg/ml, 6 days
[18] = BHK-21, 144 h, 25.0 μg/ml, 6 days
[19] = BHK-21, 144 h, 50.0 μg/ml, 6 days

Compound | cell numbers ([1]; 2nd day) | cell numbers ([1]; 4th day) | cell numbers ([2]; 0.5 μg/ml, 2 days) | cell numbers ([2]; 0.5 μg/ml, 4 days) | cell numbers ([2]; 0.5 μg/ml, 6 days) | cell numbers ([2]; 1.0 μg/ml, 2 days) | cell numbers ([2]; 1.0 μg/ml, 4 days) | cell numbers ([2]; 1.0 μg/ml, 6 days) | cell numbers ([2]; 5.0 μg/ml, 2 days) | cell numbers ([2]; 5.0 μg/ml, 4 days) | cell numbers ([2]; 5.0 μg/ml, 6 days) | cell numbers ([2]; 25.0 μg/ml, 2 days) | cell numbers ([2]; 25.0 μg/ml, 4 days) | cell numbers ([2]; 25.0 μg/ml, 6 days) | cell numbers ([2]; 50.0 μg/ml, 2 days) | cell numbers ([2]; 50.0 μg/ml, 4 days) | cell numbers ([2]; 50.0 μg/ml, 6 days) | activity at 0.5 µg/mL [2, 5] [%] | activity at 1 µg/mL [2, 6] [%] | growth inhibition of incubated human cutaneous fibroblasts [3] | other results
C[C@@H]1C[C@H]2[C@@H]3CCC4=CC(=O)C=C[C@]4(C)[C@@]3(F)[C@@H](O)C[C@]2(C)[C@@]1(O)C(=O)CO [Dexamethasone, dexamethasone] | 0.87 × 10^5 cells/dish | 1.28 × 10^5 cells/dish | 0.92 × 10^5 cells/dish | 2.32 × 10^5 cells/dish | 2.51 × 10^5 cells/dish | 0.87 × 10^5 cells/dish | 2.31 × 10^5 cells/dish | 2.54 × 10^5 cells/dish | 0.84 × 10^5 cells/dish | 2.22 × 10^5 cells/dish | 2.57 × 10^5 cells/dish | 0.71 × 10^5 cells/dish | 1.71 × 10^5 cells/dish | 2.33 × 10^5 cells/dish | 0.62 × 10^5 cells/dish | 1.24 × 10^5 cells/dish | 1.84 × 10^5 cells/dish | 94.8 | 89.7 |  | activity at 5 µg/mL [2, 7]: 86.6%; activity at 25 µg/mL [2, 8]: 73.2%; activity at 50 µg/mL [2, 9]: 63.9%; activity at 0.5 µg/mL [2, 10]: 87.2%; activity at 1 µg/mL [2, 11]: 86.8%; activity at 5 µg/mL [2, 12]: 83.5%; activity at 25 µg/mL [2, 13]: 64.3%; activity at 50 µg/mL [2, 14]: 46.6%; activity at 0.5 µg/mL [2, 15]: 97.3%; activity at 1 µg/mL [2, 16]: 98.4%; activity at 5 µg/mL [2, 17]: 99.6%; activity at 25 µg/mL [2, 18]: 90.3%; activity at 50 µg/mL [2, 19]: 71.3%
C[C@]12CCC(=O)C=C1CC[C@@H]1[C@@H]2[C@@H](O)C[C@@]2(C)[C@H]1CC[C@]2(O)C(=O)CO [Hydrocortisone, hydrocortisone] | 8.2 × 10^5 cells/dish | 12.6 × 10^5 cells/dish | 13.0 × 10^5 cells/dish | 24.0 × 10^5 cells/dish | 25.6 × 10^5 cells/dish | 12.5 × 10^5 cells/dish | 23.8 × 10^5 cells/dish | 25.1 × 10^5 cells/dish | 12.0 × 10^5 cells/dish | 21.9 × 10^5 cells/dish | 25.2 × 10^5 cells/dish | 9.3 × 10^5 cells/dish | 17.1 × 10^5 cells/dish | 22.6 × 10^5 cells/dish | 8.2 × 10^5 cells/dish | 10.8 × 10^5 cells/dish | 10.0 × 10^5 cells/dish | 105 | 101 | inhibited | activity at 5 µg/mL [2, 7]: 96.8%; activity at 25 µg/mL [2, 8]: 75%; activity at 50 µg/mL [2, 9]: 66.1%; activity at 0.5 µg/mL [2, 10]: 92.7%; activity at 1 µg/mL [2, 11]: 91.7%; activity at 5 µg/mL [2, 12]: 84.6%; activity at 25 µg/mL [2, 13]: 66%; activity at 50 µg/mL [2, 14]: 41.7%; activity at 0.5 µg/mL [2, 15]: 98.5%; activity at 1 µg/mL [2, 16]: 96.5%; activity at 5 µg/mL [2, 17]: 96.9%; activity at 25 µg/mL [2, 18]: 86.9%; activity at 50 µg/mL [2, 19]: 40%
C[C@]12C=CC(=O)C=C1CC[C@@H]1[C@@H]2[C@@H](O)C[C@@]2(C)[C@H]1CC[C@]2(O)C(=O)CO [Prednisolone, prednisolone] | 0.78 × 10^5 cells/dish | 0.94 × 10^5 cells/dish | 1.20 × 10^5 cells/dish | 2.43 × 10^5 cells/dish | 2.51 × 10^5 cells/dish | 1.20 × 10^5 cells/dish | 2.45 × 10^5 cells/dish | 2.50 × 10^5 cells/dish | 1.09 × 10^5 cells/dish | 2.33 × 10^5 cells/dish | 2.48 × 10^5 cells/dish | 0.85 × 10^5 cells/dish | 1.49 × 10^5 cells/dish | 1.91 × 10^5 cells/dish | 0.73 × 10^5 cells/dish | 1.01 × 10^5 cells/dish | 0.98 × 10^5 cells/dish | 91.6 | 91.6 |  | activity at 5 µg/mL [2, 7]: 83.2%; activity at 25 µg/mL [2, 8]: 64.9%; activity at 50 µg/mL [2, 9]: 55.7%; activity at 0.5 µg/mL [2, 10]: 89.3%; activity at 1 µg/mL [2, 11]: 90.1%; activity at 5 µg/mL [2, 12]: 85.7%; activity at 25 µg/mL [2, 13]: 54.8%; activity at 50 µg/mL [2, 14]: 37.1%; activity at 0.5 µg/mL [2, 15]: 94.7%; activity at 1 µg/mL [2, 16]: 94.3%; activity at 5 µg/mL [2, 17]: 93.6%; activity at 25 µg/mL [2, 18]: 72.1%; activity at 50 µg/mL [2, 19]: 37%
CCCCC(=O)O[C@]1(C(=O)CO)[C@@H](C)C[C@H]2[C@@H]3CCC4=CC(=O)C=C[C@]4(C)[C@@]3(F)[C@@H](O)C[C@@]21C [betamethasone-17-valerate] |  |  |  |  |  |  |  |  |  |  |  |  |  |  |  |  |  |  |  | inhibited | 
CCC(=O)OCC(=O)[C@@]1(OC(=O)CC)[C@@H](C)C[C@H]2[C@@H]3CCC4=CC(=O)C=C[C@]4(C)[C@@]3(F)[C@@H](O)C[C@@]21C [betamethasonedipropionate] |  |  |  |  |  |  |  |  |  |  |  |  |  |  |  |  |  |  |  | inhibited | 
CCC(=O)O[C@]1(C(=O)CCl)[C@@H](C)C[C@H]2[C@@H]3CCC4=CC(=O)C=C[C@]4(C)[C@@]3(F)[C@@H](O)C[C@@]21C [clobetasol-17-propionate] |  |  |  |  |  |  |  |  |  |  |  |  |  |  |  |  |  |  |  | inhibited | denaturation of human fibroblastic nuclei and protoplasms ([3]; 25 μg/ml): caused human fibroblastic nuclei and protoplasms to denature
C[C@]12CCC(=O)C=C1CC[C@@H]1[C@@H]2[C@@H](O)C[C@@]2(C)[C@H]1CC[C@]2(O)C(=O)CO [cortisol] |  |  |  |  |  |  |  |  |  |  |  |  |  |  |  |  |  |  |  |  | growth of incubated mouse fibroblasts [4]: inhibited growth
CCCC(=O)O[C@]1(C(=O)CO)CC[C@H]2[C@@H]3CCC4=CC(=O)CC[C@]4(C)[C@H]3[C@@H](O)C[C@@]21C [hydrocortisone-butylate] |  |  |  |  |  |  |  |  |  |  |  |  |  |  |  |  |  |  |  | inhibited | 
